Experimental data reported in the NIST ThermoML archive (doi:10.1016/j.jct.2016.09.008).
± gives the expanded uncertainty stated by the source.

What was measured:
[1] = refractive index (Na D-line) (dimensionless); conditions: 298.15 K; 101.33 kPa; Liquid; Standard Abbe refractometry
[2] = 298.15 K; 101.33 kPa; Liquid; Vibrating tube method
[3] = refractive index (Na D-line) (dimensionless); wn = mass fraction of the nth substance listed; conditions: 298.15 K; 101.1 kPa; Liquid; Standard Abbe refractometry; w1 = 0.85
[4] = wn = mass fraction of the nth substance listed; conditions: 298.15 K; 101.1 kPa; Liquid; Vibrating tube method; w1 = 0.85

Row | SMILES | refractive index [1] | mass density [2] [kg/m3] | refractive index [3] | mass density [4] [kg/m3]
1 | O [water] | 1.3326 ± 0.0005 | – | – | –
2 | CC1COC(=O)O1 (stereo not given) [4-methyl-1,3-dioxolan-2-one] | 1.419 ± 0.0005 | 1198.3 ± 2.4 | – | –
3 | O=P(O)(O)O [phosphoric acid] + O | – | – | 1.432 ± 0.0005 | 1682.8 ± 2.5
